Assays:
[1] = test system: blood lymphocytes; test: Lymphopenia assay; type: in vivo, mice
Procedure: Pro-drug compounds (i.e., primary alcohols such as VPC01091) are dissolved in 2% hydroxypropyl beta-cyclodextrin and introduced into mice by oral gavage at doses from 0.01 to 30 mg/kg body weight. After 24 hours (or multiples thereof), the mice are lightly anesthetized and ca. 0.1 ml of blood is drawn from the orbital sinus. The number of lymphocytes (in thousands per microliter of blood; normal is 4-11) is determined using a Hemavet blood analyzer. In the histogram showing the four isomers of VPC01091, the 100% value for the vehicle treated mouse was 7.5 at 24 hours; at 96 hours it was 5. There were three mice/group, the strain was mixed sv129×C57BL/6. Active compounds (e.g., VPC01211) are dissolved in acidified DMSO at 20 mM, and diluted 1:20 into 2% hydroxypropyl beta-cyclodextrin in water with mixing. This solution is introduced into mice by intraperitoneal (i.p.) injection at doses of 0.01-10 mg/kg body weight.
FIG. 3 describes total blood lymphocyte count following single dose of VPC01091 or vehicle. […] Five mice per group, male, 10-11 week old sv129/C57B16 strain.
A dose response curve for VPC01091 in the lymphopenia assay is given as FIG. 4. FIG. 4 graphically summarizes oral administration (gavage) of VPC01091 in 2% hydroxypropyl beta-cyclodextrin, 3 mice per group (same strain as in FIG. 3).
This phosphorylation of these compounds is thought to be catalyzed in vivo by sphingosine kinase type 2 (SPHK2), which is encoded by the SPHK2 gene in mice.

[2] = Heart rate assay; type: in vivo; conditions: mice, intravenous, 3 mg/kg (FIG. 2)
Procedure: In the assay the test compound was administered via IV Dosing and the vehicle was 2% cyclodextrin.
Mice were dosed with VPC01091 (intravenous, 3 mg/kg) or vehicle (2% hydroxypropyl beta-cyclodextrin) and heart rate measured at the indicated times post dosing. Heart rate was captured in unrestrained, conscious animals using the ECGenie™ system.

[3] = target: T1, human S1P4 receptor (Homo sapiens, UniProt O95977); test: GTPγS-35 binding assay, S1P4; type: biochemical; conditions: FIG. 10
T1 construct: expressed in transfected cells; host or cells: HEK293T (crude microsomes)
T1 sequence (O95977 whole entry): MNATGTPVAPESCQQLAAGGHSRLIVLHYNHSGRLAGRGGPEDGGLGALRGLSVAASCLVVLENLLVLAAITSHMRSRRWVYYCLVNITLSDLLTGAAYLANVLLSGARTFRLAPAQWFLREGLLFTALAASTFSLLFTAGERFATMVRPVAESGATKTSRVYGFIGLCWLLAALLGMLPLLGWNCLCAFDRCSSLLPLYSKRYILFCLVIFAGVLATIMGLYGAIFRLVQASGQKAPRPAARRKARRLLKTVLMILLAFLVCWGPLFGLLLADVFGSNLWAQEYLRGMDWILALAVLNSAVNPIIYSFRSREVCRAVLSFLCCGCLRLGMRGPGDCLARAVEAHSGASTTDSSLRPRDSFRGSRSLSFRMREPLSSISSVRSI
T1 sequence (P04899 2-355 partner limits assumed): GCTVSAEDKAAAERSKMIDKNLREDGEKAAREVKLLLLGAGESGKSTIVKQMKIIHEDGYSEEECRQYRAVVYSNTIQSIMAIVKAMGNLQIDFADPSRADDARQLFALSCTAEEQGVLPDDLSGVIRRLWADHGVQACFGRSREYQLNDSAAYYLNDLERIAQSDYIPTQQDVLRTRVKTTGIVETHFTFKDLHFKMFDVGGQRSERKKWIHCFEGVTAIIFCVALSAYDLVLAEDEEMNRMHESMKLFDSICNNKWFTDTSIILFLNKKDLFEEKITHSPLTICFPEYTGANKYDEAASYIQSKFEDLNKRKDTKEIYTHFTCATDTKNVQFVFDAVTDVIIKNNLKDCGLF
T1 sequence (P62873 2-340 partner limits assumed): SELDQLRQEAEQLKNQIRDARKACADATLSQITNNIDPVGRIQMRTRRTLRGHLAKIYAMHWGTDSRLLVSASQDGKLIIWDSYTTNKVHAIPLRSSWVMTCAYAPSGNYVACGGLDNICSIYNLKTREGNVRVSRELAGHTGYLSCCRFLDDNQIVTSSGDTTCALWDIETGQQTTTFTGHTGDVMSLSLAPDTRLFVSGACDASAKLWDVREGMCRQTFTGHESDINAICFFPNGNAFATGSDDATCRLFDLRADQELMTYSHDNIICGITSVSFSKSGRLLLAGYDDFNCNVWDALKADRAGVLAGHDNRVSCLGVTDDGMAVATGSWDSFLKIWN
T1 sequence (P59768 2-68 partner limits assumed): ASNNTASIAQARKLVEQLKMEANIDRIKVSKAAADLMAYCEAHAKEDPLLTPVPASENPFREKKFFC
Text: FIG. 10 graphically illustrates the results of a broken cell GTPγ^35S binding assay for the human S1P4 receptor. Compound ‘CA5-P’ is VPC01211. Compounds CA6-P and CA4-P are the corresponding cyclohexyl and cyclobutyl compounds.
(§1) This assay illustrates agonist activation of G protein coupled receptors (GPCRs) in isolation. The assay forces expression concomitantly of a recombinant GPCR (e.g., the S1P1-5 receptor) and each of the three subunits (typically, alphai2, beta1, gamma2) of a heterotrimeric G protein in a HEK293T cell by transfecting the cell with four plasmid DNAs encoding the respective proteins. About 60 hours after transfection the cells are harvested, opened, and the nucleus discarded. This allows for the preparation of a crude microsome from the remainder. Agonist (e.g., S1P) stimulation of the receptor-G protein complex on the microsomes results in the exchange of GTP for GDP on the alpha subunit in a dose-dependent manner. […] The microsomes with the adherent G proteins are collected by filtration and the bound GTPγS-35 quantified in a liquid scintillation counter. […] Antagonist activity is detected as rightward shifts in the agonist dose-response curve in the presence of a fixed amount of antagonist. If the antagonist behaves competitively, the affinity of the receptor/antagonist pair (K1) can be determined.

[4] = target: T2, human S1P3 receptor (Homo sapiens, UniProt Q99500); test: Schild plot of S1P dose response curves at S1P3; type: biochemical; parameters: expressed in transfected cells; host or cells: hamster CHO-K1, clonal population; conditions: FIGS. 12-14
T2 sequence (Q99500 whole entry): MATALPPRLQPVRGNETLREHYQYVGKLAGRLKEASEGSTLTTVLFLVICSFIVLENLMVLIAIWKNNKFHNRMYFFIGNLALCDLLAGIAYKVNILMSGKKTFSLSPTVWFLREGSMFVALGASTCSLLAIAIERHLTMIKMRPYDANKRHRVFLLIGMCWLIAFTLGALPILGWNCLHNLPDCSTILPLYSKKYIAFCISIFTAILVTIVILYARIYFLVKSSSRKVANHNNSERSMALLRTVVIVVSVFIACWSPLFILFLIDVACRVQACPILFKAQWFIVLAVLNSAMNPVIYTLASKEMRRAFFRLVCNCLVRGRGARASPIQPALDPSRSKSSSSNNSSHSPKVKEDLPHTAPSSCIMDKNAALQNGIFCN
Text: FIG. 12 is an illustration of a Schild plot for the results of S1P dose response curves at the human S1P3 receptor, at the indicated concentrations of test compound VPC01222.
FIG. 13 is an illustration of a Schild plot for the results of S1P dose response curves at the human S1P3 receptor, at the indicated concentrations of test compound VPC01211.
FIG. 14 is an illustration of a Schild plot for the results of S1P dose response curves at the human S1P3 receptor, at the indicated concentrations of test compound VPC01214.
as §1, with “discarded.” for “discarded. This allows for the preparation of a crude microsome from the remainder. Agonist (e.g., S1P) stimulation of the receptor-G protein complex on the microsomes results in the exchange of GTP for GDP on the alpha subunit in a dose-dependent manner.”

[5] = target: T3, human S1P type 3 (S1P3) receptor (Homo sapiens, UniProt Q99500); test: GTPγS-35 binding assay, S1P3; type: biochemical
T3 construct: expressed in transfected cells; host or cells: HEK293T (crude microsomes)
T3 sequence (Q99500 whole entry): as above
Procedure: The assay forces expression concomitantly of a recombinant GPCR (e.g., the S1P1-5 receptor) and each of the three subunits (typically, alphai2, beta1, gamma2) of a heterotrimeric G protein in a HEK293T cell by transfecting the cell with four plasmid DNAs encoding the respective proteins. About 60 hours after transfection the cells are harvested, opened, and the nucleus discarded. This allows for the preparation of a crude microsome from the remainder. Agonist (e.g., S1P) stimulation of the receptor-G protein complex on the microsomes results in the exchange of GTP for GDP on the alpha subunit in a dose-dependent manner. To detect the GTP-bound alpha subunit, we use a GTP analog (GTPγS-35), which is a radionuclide (sulfur-35) labeled phosphothionate, that is not hydrolyzed to GDP. The microsomes with the adherent G proteins are collected by filtration and the bound GTPγS-35 quantified in a liquid scintillation counter. The assay yields relative potency (EC50 values) and maximum effect (efficacy, Emax). Antagonist activity is detected as rightward shifts in the agonist dose-response curve in the presence of a fixed amount of antagonist. If the antagonist behaves competitively, the affinity of the receptor/antagonist pair (K1) can be determined.

[6] = target: T4, human S1P2 receptor (Homo sapiens, UniProt O95136); test: Calcium mobilization assay, CHO-K1 cells expressing S1P2; type: cell-based; parameters: expressed in transfected cells; host or cells: hamster CHO-K1, clonal population; conditions: FIG. 7
T4 sequence (O95136 whole entry): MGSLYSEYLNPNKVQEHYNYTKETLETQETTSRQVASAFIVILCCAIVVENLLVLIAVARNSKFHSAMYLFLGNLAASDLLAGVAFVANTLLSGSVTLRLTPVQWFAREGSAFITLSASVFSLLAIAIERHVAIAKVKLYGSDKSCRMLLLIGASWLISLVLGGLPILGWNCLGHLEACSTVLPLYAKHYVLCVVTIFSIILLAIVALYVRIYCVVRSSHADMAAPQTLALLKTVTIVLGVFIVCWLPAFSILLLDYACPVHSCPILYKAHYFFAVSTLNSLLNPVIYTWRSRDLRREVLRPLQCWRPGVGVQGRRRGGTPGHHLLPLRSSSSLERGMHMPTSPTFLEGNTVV
Procedure: FIG. 7 graphically illustrates the results of a calcium mobilization assay using CHO-K1 cells expressing recombinant human S1P2 receptor. […] The ordinate represents percent maximal calcium mobilization and the abscissa represents log molar concentration of lipid.
(§2) To measure calcium mobilization in response to agonist stimulation, cells were plated onto a 96 well plate, loaded with the calcium sensing dye Fluo-4AM and cells exposed to various concentrations of agonist for 3-5 minutes. Changes in fluorescence, which correlate with intracellular calcium mobilization, are detected using a FlexStation fluorimeter. Each agonist concentration was tested in triplicate.
FIG. 7: CHOK1 cells transfected with S1P2 receptor DNA

[7] = target: T2, human S1P3 receptor; test: Calcium mobilization assay in T24 cells overexpressing S1P3; type: cell-based; parameters: expressed in transfected cells; conditions: 10 μM test compound, FIG. 15
Procedure: FIG. 15 is an illustration of the result of a calcium mobilization assay in T24 cells overexpressing the human S1P3 receptor in response to […] S1P in the presence of 10 μM VPC01211.

[8] = target: T4, human S1P2 receptor; test: GTPγS-35 binding assay, S1P2; type: biochemical; parameters: expressed in transfected cells; host or cells: HEK293T (crude microsomes); conditions: FIG. 8
Text: FIG. 8 graphically illustrates the results of a broken cell GTPγ^35S binding assay for the human S1P2 receptor. Compound ‘CA5-P’ is VPC01211. Compounds CA6-P and CA4-P are the corresponding cyclohexyl and cyclobutyl compounds. The ordinate represents percent GTPγ^35S binding and the abscissa represents log molar concentration of lipid.
as §1, with “remainder.” for “remainder. Agonist (e.g., S1P) stimulation of the receptor-G protein complex on the microsomes results in the exchange of GTP for GDP on the alpha subunit in a dose-dependent manner.”

[9] = target: T2, human S1P3 receptor; test: Calcium mobilization assay, CHO-K1 cells expressing S1P3; type: cell-based; parameters: expressed in transfected cells; host or cells: hamster CHO-K1, clonal population; conditions: FIG. 9
Procedure: FIG. 9 graphically illustrates the results of a calcium mobilization assay using CHO-K1 cells expressing recombinant human S1P3 receptor.
as §2

[10] = target: T5, human S1P1 receptor (Homo sapiens, UniProt P21453); test: GTPγS-35 binding assay, S1P1; type: biochemical; conditions: relative to S1P (FIG. 6)
T5 construct: expressed in transfected cells; host or cells: HEK293T (crude microsomes)
T5 sequence (P21453 whole entry): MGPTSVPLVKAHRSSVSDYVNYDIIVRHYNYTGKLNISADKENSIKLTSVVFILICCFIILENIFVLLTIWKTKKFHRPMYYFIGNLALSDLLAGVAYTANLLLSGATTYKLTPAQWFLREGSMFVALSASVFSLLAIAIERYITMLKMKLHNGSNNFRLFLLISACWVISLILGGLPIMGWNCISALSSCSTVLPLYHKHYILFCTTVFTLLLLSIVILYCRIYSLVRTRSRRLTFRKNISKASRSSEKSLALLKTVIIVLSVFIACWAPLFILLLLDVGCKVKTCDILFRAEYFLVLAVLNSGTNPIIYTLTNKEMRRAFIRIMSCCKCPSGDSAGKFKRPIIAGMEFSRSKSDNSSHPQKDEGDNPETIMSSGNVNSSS
T5 sequence (P04899 2-355 partner limits assumed): as the sequence (P04899 2-355 partner limits assumed) above
T5 sequence (P62873 2-340 partner limits assumed): as the sequence (P62873 2-340 partner limits assumed) above
T5 sequence (P59768 2-68 partner limits assumed): as the sequence (P59768 2-68 partner limits assumed) above
Procedure: This assay illustrates agonist activation of G protein coupled receptors (GPCRs) in isolation. The assay forces expression concomitantly of a recombinant GPCR (e.g., the S1P1-5 receptor) and each of the three subunits (typically, alphai2, beta1, gamma2) of a heterotrimeric G protein in a HEK293T cell by transfecting the cell with four plasmid DNAs encoding the respective proteins. About 60 hours after transfection the cells are harvested, opened, and the nucleus discarded. This allows for the preparation of a crude microsome from the remainder. Agonist (e.g., S1P) stimulation of the receptor-G protein complex on the microsomes results in the exchange of GTP for GDP on the alpha subunit in a dose-dependent manner. To detect the GTP-bound alpha subunit, we use a GTP analog (GTPγS-35), which is a radionuclide (sulfur-35) labeled phosphothionate, that is not hydrolyzed to GDP. The microsomes with the adherent G proteins are collected by filtration and the bound GTPγS-35 quantified in a liquid scintillation counter. […] Antagonist activity is detected as rightward shifts in the agonist dose-response curve in the presence of a fixed amount of antagonist. If the antagonist behaves competitively, the affinity of the receptor/antagonist pair (K1) can be determined.

[11] = target: T6, human S1P5 receptor (Homo sapiens, UniProt Q9H228); test: GTPγS-35 binding assay, S1P5; type: biochemical; conditions: FIG. 11
T6 construct: expressed in transfected cells; host or cells: HEK293T (crude microsomes)
T6 sequence (Q9H228 whole entry): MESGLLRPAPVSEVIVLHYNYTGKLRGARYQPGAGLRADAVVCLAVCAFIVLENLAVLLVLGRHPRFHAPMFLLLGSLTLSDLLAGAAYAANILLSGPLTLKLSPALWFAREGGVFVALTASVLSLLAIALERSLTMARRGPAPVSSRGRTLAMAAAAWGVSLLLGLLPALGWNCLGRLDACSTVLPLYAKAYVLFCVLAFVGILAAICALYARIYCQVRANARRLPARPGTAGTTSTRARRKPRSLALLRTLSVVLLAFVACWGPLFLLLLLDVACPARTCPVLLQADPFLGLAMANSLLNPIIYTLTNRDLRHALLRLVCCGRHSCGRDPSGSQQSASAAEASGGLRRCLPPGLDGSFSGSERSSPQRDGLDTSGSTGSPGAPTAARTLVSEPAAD
T6 sequence (P04899 2-355 partner limits assumed): as the sequence (P04899 2-355 partner limits assumed) above
T6 sequence (P62873 2-340 partner limits assumed): as the sequence (P62873 2-340 partner limits assumed) above
T6 sequence (P59768 2-68 partner limits assumed): as the sequence (P59768 2-68 partner limits assumed) above
Text: FIG. 11 graphically illustrates the results of a broken cell GTPγ^35S binding assay for the human S1P5 receptor. Compound ‘CA5-P’ is VPC01211. Compounds CA6-P and CA4-P are the corresponding cyclohexyl and cyclobutyl compounds.
as §1

Row | SMILES | lymphopenia (total blood lymphocyte count) ([1]; mice, oral gavage, single dose, 2% hydroxypropyl beta-cyclodextrin (FIG. 3)) | duration of lymphopenia ([1]; mice, single ED95 dose) | lymphopenia in mice without a functional SPHK2 gene ([1]; single oral dose, 24 hours (FIG. 5)) | effect on heart rate [2] | agonist activity at the S1P4 receptor [3] | antagonism at S1P3 (rightward shifts in the S1P dose response curves) [4] | activity at the S1P3 receptor (GTPγS binding) [5] | activity at the S1P2 receptor (calcium mobilization) [6] | antagonism at S1P3 (rightward shift of S1P calcium response) [7] | activity at the S1P2 receptor (GTPγS binding) [8] | activity at the S1P3 receptor (calcium mobilization) [9] | agonist activity at the S1P1 receptor [10] | agonist activity at the S1P5 receptor [11]
1 | CCCCCCCCc1ccc(C2CCC(N)(CO)C2)cc1 (stereo not shown) [VPC01091, (1-amino-3-(4-octylphenyl)cyclopentyl)methanol] | profound, long lasting lymphopenia | lymphopenia for a week or more | no lymphopenia was observed | no effect on the heart rate | – | – | – | – | – | – | – | – | –
2 | CCCCCCCCc1ccc(C2CCC(N)(COP(=O)(O)O)C2)cc1 (stereo not shown) [VPC01211, (1-amino-3-(4-octylphenyl)cyclopentyl)methyl dihydrogen phosphate] | – | – | – | – | full agonists | surmountable antagonist | negative, or inverse, agonists | inactive | surmountable antagonism | inactive | inactive | partial agonists | partial agonists

Reference: US8329676B2, “Cycloalkane-containing sphingosine 1-phosphate agonists” (University of Virginia Patent Foundation, priority 2005, dated 2012)
